Where two headings read alike, the source gives them in different places.
How the values were obtained:
[1] = Stability of thiourea chelates; type: physicochemical
kidney = assay: Renal clearance and extraction efficiency in rats; type: in vivo, rat; conditions: technetium or rhenium chelate
Procedure: Clearance was determined by averaging three clearances based on three successive 10 minute urine collections. Clearance=UV/P where U is the urine concentration, V is the urine volume, and P is the plasma concentration. To measure extraction efficiency (EE), a left renal venous blood (0.5 ml) sample was obtained followed by a 3-ml carotid arterial sample. Both blood samples were centrifuged within 5 minutes to obtain a plasma sample. The extraction efficiency was calculated by measuring the difference between the arterial and venous blood sample: EE=(arterial concentration--venous concentrationlarterial concentration). Plasma protein binding (PPB) was determined by ultracentrifugation (Centrifree, Amicon, Inc., Beverly, Mass., micropartition system) of 1 ml arterial plasma. PPB=[1.0-(ultrafiltrate concentration/plasma concentration)]×100.

[2] = Biodistribution in normal rats (Table 1); type: in vivo, rat; conditions: for Bladder, percent of total activity / Carcass, percent of total activity / Intestines, percent of total activity / Kidneys, percent of total activity / Liver, percent of total activity / Stomach, percent of total activity: normal rats
Procedure: Tracheostomy was performed in an anesthetized rat and the left jugular vein was cannulated with one piece of PE-50 tubing for injection of the ^99m Tc radiopharmaceutical. The bladder was catheterized utilizing heat flared PE-50 tubing for urine collection. […] Each animal was sacrificed at the conclusion of the dynamic study and simultaneous static images of the isolated lungs, heart, liver, spleen, stomach, kidneys, bowel and bladder with urine were acquired as well as a static image of the rat carcass without the organs. Total counts for the injected dose were determined from the sum of the isolated organ counts and the carcass counts decay corrected to the time of organ imaging. Regions of interest were drawn around each organ to determine the percent injected dose in each organ.

[3] = Normal volunteer studies: plasma clearance, urinary excretion, imaging; type: in vivo, human; conditions: humans; for Clearance rate (EC/OIH): relative to coinjected OIH
Procedure: ^99m Tc LL-EC, DD-EC and DL-EC were each evaluated in three normal male volunteers. The HPLC purified complexes and phosphate-buffered saline (pH 7.0) were passed through a SEP-PAK Plus C18 cartridge (primed with 1 ml ethanol) and a sterile Millex-GS 0.22 μm filter unit into a sterile, pyrogen-free empty vial. The final concentration was ~2.0 mCi/2.5 ml and the final pH ranged from 5.7 to 7.4. Test samples of each complex were sterile and pyrogen free. Approximately 2 mCi of each ^99m Tc complex were coinjected with 200 μCi of I-131 OIH and plasma samples were obtained at 5, 10, 15, 20, 30 45, 60 and 90 minutes post injection. The plasma clearances of 1-131 OIH and each EC complex were determined using the single injection, two-compartment model of Sapirstein et al., (1955) Am. J. Physiol. 181: 330-336. The volunteers voided at 30, 90 and 180 minutes post injection to determine the percent dose in the urine at each time period. A urine sample from the 30 minute urine collection was obtained for HPLC analysis from one of the normal volunteers and analyzed for each complex. One volunteer was imaged with each complex using a simultaneous acquisition with a 20% window centered over the 363 KeV photopeak of I-131 and a second 20% window over the 140 KeV photopeak of ^99m Tc. Data were acquired in a 128×128 matrix using a three phase dynamic acquisition: phase 1 consisted of 24 two second frames, phase 2 consisted of 16 fifteen second frames and phase 3 consisted of 40 thirty second frames. Data were acquired using a general Electric (Milwaukee, Wis.) Star-Cam computer fitted with a high energy collimator. All studies were performed with the approval of the Human Investigations Committee and a signed consent form was obtained.

[4] = Ionic forms at physiological pH; type: physicochemical
plasma protein = conditions: cited from earlier work
[5] = mice and baboons; cited from earlier work
[6] = cited from earlier work
[7] = cited from earlier work; remark: listed apart in the source
kidneys = conditions: in vivo; cited from earlier work
[8] = mice, baboons, volunteers; cited from earlier work
brain = conditions: in vivo; cited from earlier work
[9] = cited from earlier work; remark: listed apart in the source

## CC(C)(S)C(=O)NCCCNC(=S)NCCC(=O)O [(Me)2 -TAPTU-EtCOOH, dimethylthioacetamidepropylthiourea-ethylCOOH]
[1]
  Stability compared with the corresponding thioacetamidethiourea derivative: greater stability than the corresponding thioacetamide-thiourea derivative
[1]; listed as dimethyl-TAPTU-EtCOOH
  Stability compared with the corresponding thioacetamidethiourea derivative: appeared to be more stable than the corresponding thioacetamidethiourea derivative

## O=C(O)[C@@H](CS)NCCN[C@H](CS)C(=O)O [D,D-EC, D,D-ethylenedicysteine]
kidney
  Renal clearance, in words: significantly higher than that of its LL-isomer and than that of ^99m Tc MAG3
[2]; 22 minutes post injection
  Bladder, percent of total activity: 63.2% of total activity
  Carcass, percent of total activity: 25.4% of total activity
  Intestines, percent of total activity: 2.6% of total activity
  Kidneys, percent of total activity: 5.4% of total activity
  Liver, percent of total activity: 2.9% of total activity
  Stomach, percent of total activity: < 1% of total activity
[2]; rats
  Removal/excretion by the kidneys, in words: more rapid renal clearance than ^99m Tc MAG3
[2]; rats, listed as 99m Tc-D,D-EC
  Removal/excretion by the kidneys, in words: superior to L,L-EC in rats
[3]
  Clearance rate (EC/OIH): 82±8%
[4]
  Dianionic form at physiological pH: 80%
  Monoanionic form at physiological pH: 20%

## O=C(O)C(CS)NCCNC(CS)C(=O)O (stereo not drawn) [EC, ethylene dicysteine]
Plasma protein
  Protein binding characteristics: favorable protein binding characteristics

## O=C([O-])[C@H](C[S-])NCCN[C@@H](CS)C(=O)[O-].[O]=[Tc+3] [L,L-EC, L,L-ethylenedicysteine]
[2]; 22 minutes post injection
  Bladder, percent of total activity: 45.6% of total activity
  Carcass, percent of total activity: 22.6% of total activity
  Intestines, percent of total activity: 1.8% of total activity
  Kidneys, percent of total activity: 24.4% of total activity
  Liver, percent of total activity: 4.5% of total activity
  Stomach, percent of total activity: < 1% of total activity
[3]
  Clearance rate (EC/OIH): 70±3%
[5]
  Comparison with ^99m Tc DD-EC: superior to the enantiomer ^99m Tc DD-EC
  Pharmacokinetic properties compared with OIH and MAG3: more closely approached those of OIH than the properties of MAG3
[4]
  Dianionic form at physiological pH: 80%
  Monoanionic form at physiological pH: 20%

## O=C(O)CNC(=O)CNC(=O)CNC(=O)CS [MAG3, mercaptoacetyltriglycine]
[6]; in vivo
  Clearance compared to DTPA: higher clearance of MAG3 compared to DTPA
[6]; percent of OIH clearance
  Clearance relative to OIH: 50-60%
Plasma protein
  Plasma-protein binding, in words: very high
[2]; 22 minutes post injection
  Bladder, percent of total activity: 57% of total activity
  Carcass, percent of total activity: 14% of total activity
  Intestines, percent of total activity: 5% of total activity
  Kidneys, percent of total activity: 23% of total activity
  Liver, percent of total activity: 1% of total activity
  Stomach, percent of total activity: < 1% of total activity
[7]; normal volunteers
  Transport into the small intestine via the hepatobiliary system: a small percentage
[7]; patients with renal failure
  Transport into the small intestine via the hepatobiliary system: this percentage increases in patients with renal failure
kidneys
  Extraction rate: favorably high extraction rate

## C[C@H](NC(=O)CNC(=O)CS)C(=O)NCC(=O)O [MAGAG, mercaptoacetylglycylalanylglycine]
[8]
  Comparison with ^99m Tc MAG3: one diastereomer comparable and the other considerably inferior

## O=C(O)CNC(=O)c1ccccc1[131I] [OIH, ^131 I-orthohippurate]
[6]; percent of PAH clearance
  Clearance relative to p-aminohippuric acid (PAH): 83%

## D,L-ethylenedicysteine [DL-EC]
[3]
  Rate of excretion in the urine: had a slower rate of excretion
  Clearance rate (EC/OIH): 40±5%

## L-cysteinylethylenepyridine carboxamide [L-CEPIC]
kidney
  Renal clearance, in words: renal clearance efficiency similar to that of ^99m Tc MAG3
[2]; 30 minutes post injection
  Bladder, percent of total activity: 58.2% of total activity
  Carcass, percent of total activity: 19.8% of total activity
  Intestines, percent of total activity: 6.4% of total activity
  Kidneys, percent of total activity: 7.2% of total activity
  Liver, percent of total activity: 4.8% of total activity
  Stomach, percent of total activity: 1.9% of total activity
[2]; rats
  Removal/excretion by the kidneys, in words: rapid and selective removal of the test compounds by the kidneys
  Uptake in other major organs: only trace amounts being taken up in other major organs
[2]; rats, listed as 99m Tc-CEPIC
  Removal/excretion by the kidneys, in words: even more rapidly excreted by the kidneys than ^99m Tc MAG3

## ^99m Tc L,L-ethylenedicysteine diethyl ester [^99m Tc LL-ECD]
brain
  Brain perfusion: good brain perfusion agent

## ^99m Tc mercaptoacetyl-glycylglycyl-taurine
[9]
  Comparison with ^99m Tc MAG3 in dogs: inferior to ^99m Tc MAG3 in dogs

## thioacetamidethiourea-ethylCOOH [TATU-EtCOOH]
kidney
  Renal clearance, in words: superior renal clearance in rats when compared to a corresponding metal chelate with MAG3

## thioacetamidethiourea-para-phenylCOOH [TATU-pPhCOOH]
kidney
  Renal clearance, in words: cleared at a moderate rate by the kidneys in rat
kidney; listed as TATU-pPh
  Renal clearance, in words: cleared at a moderate rate

From patent publication US5986074A, “Metal chelates as pharmaceutical imaging agents, processes of making such and uses thereof” (Emory University, priority 1997, dated 1999)
